ChEMBL document CHEMBL5634096, “Design, synthesis and bioevaluation of PI3Kα-selective inhibitors as potential colorectal cancer drugs” (Eur J Med Chem, 2023)
The source made the active and inactive calls. No cut-off for these calls is given here.

Columns and labels:
HCT-116 [1] = assay: Induction of apoptosis in human HCT-116 cells assessed as increase in total apoptotic cells at 3 uM incubated for 48 hrs by Annexin V-FITC and propidium iodide staining based flow cytometry analysis (reference value: 4.22 %); format: functional
SW-620 = assay: Antiproliferative activity against human SW-620 cells assessed as reduction in cell viability incubated for 24 to 48 hrs by CCK-8 assay; format: functional, cell-based
A-375 = assay: Antiproliferative activity against human A-375 cells assessed as reduction in cell viability at 10 uM incubated for 24 to 48 hrs by CCK-8 assay; format: functional, cell-based; conditions: time lower […], time upper 48.0 hrs
HCT-116 [2] = assay: Antiproliferative activity against human HCT-116 cells assessed as reduction in cell viability incubated for 24 to 48 hrs by CCK-8 assay; format: functional, cell-based
[3] = Metabolic stability in artificial gastrointestinal fluid assessed as compound remaining measured upto 8 hrs by LC-MS/MS analysis; format: ADME
786-0 = assay: Antiproliferative activity against human 786-0 cells assessed as reduction in cell viability at 10 uM incubated for 24 to 48 hrs by CCK-8 assay; format: functional, cell-based; conditions: time lower […], time upper 48.0 hrs
[4] = Half life in Sprague-Dawley rat at 5 mg/kg, iv measured upto 24 hrs by LC-MS analysis; format: ADME, organism-based; conditions: in vivo
HCT-116 [5] = assay: Induction of apoptosis in human HCT-116 cells assessed as increased total apoptotic cells at 12 uM incubated for 48 hrs by Annexin V-FITC and propidium iodide staining based flow cytometry analysis (reference value: 4.22 %); format: functional
A673 = assay: Antiproliferative activity against human A673 cells assessed as reduction in cell viability at 10 uM incubated for 24 to 48 hrs by CCK-8 assay; format: functional, cell-based; conditions: time lower […], time upper 48.0 hrs
MDA-MB-231 = assay: Antiproliferative activity against human MDA-MB-231 cells assessed as reduction in cell viability incubated for 24 to 48 hrs by CCK-8 assay; format: functional, cell-based
[6] = Clearance in Sprague-Dawley rat at 5 mg/kg, iv measured upto 24 hrs by LC-MS analysis; format: ADME, organism-based; conditions: in vivo
[7] = target: Phosphatidylinositol 4,5-bisphosphate 3-kinase catalytic subunit alpha isoform (Homo sapiens, UniProt P42336); assay: Inhibition of PI3Kalpha (unknown origin) by ADP-Glo luminescent kinase assay
Chain of Phosphatidylinositol 4,5-bisphosphate 3-kinase catalytic subunit alpha isoform (P42336 whole entry, canonical isoform): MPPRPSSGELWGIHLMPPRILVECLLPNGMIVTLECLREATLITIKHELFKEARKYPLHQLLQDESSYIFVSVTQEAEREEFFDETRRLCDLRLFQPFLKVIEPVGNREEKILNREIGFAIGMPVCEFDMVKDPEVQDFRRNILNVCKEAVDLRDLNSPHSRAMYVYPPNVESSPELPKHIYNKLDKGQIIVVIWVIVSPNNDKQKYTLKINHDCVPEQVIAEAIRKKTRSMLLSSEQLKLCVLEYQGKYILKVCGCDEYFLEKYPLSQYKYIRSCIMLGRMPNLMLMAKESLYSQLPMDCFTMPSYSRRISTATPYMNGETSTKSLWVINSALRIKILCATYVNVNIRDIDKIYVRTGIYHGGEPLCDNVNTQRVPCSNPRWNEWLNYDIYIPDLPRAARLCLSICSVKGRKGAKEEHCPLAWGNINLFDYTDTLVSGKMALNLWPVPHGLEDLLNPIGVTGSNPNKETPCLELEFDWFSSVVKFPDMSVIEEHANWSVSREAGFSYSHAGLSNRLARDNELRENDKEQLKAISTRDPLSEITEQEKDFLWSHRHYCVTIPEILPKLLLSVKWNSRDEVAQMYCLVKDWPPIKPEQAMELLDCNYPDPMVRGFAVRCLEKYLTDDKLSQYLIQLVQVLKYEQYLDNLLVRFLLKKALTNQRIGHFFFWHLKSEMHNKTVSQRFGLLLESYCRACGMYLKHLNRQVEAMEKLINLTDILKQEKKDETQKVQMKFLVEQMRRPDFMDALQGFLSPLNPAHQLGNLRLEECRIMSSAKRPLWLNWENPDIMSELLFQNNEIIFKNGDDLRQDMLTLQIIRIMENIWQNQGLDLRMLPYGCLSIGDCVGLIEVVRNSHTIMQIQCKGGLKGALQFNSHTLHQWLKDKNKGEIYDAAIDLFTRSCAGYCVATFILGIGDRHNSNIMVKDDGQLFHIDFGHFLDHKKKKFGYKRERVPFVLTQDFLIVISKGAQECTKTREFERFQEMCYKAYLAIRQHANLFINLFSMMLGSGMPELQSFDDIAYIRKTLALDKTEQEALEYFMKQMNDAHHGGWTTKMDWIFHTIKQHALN

[8] = Volume of distribution in Sprague-Dawley rat at 5 mg/kg, iv measured upto 24 hrs by LC-MS analysis; format: ADME, organism-based; conditions: in vivo
DU-145 = assay: Antiproliferative activity against human DU-145 cells assessed as reduction in cell viability at 10 uM incubated for 24 to 48 hrs by CCK-8 assay; format: functional, cell-based; conditions: time lower […], time upper 48.0 hrs
HCT-116 [9] = assay: Induction of cell cycle arrest at G1/G0 phase in human HCT-116 cells assessed as decrease in cyclinD1 expression incubated for 48 hrs by Western blotting analysis; format: functional, cell-based; conditions: dose 3-12 µM
HCT-116 [10] = assay: Inhibition of cell invasion human HCT-116 cells incubated for 48 hrs by crystal violet staining based transwell assay; format: functional; conditions: dose 3-12 µM
[11] = target: Phosphatidylinositol 4,5-bisphosphate 3-kinase catalytic subunit beta isoform (Homo sapiens, UniProt P42338); assay: Inhibition of PI3Kbeta (unknown origin) by ADP-Glo luminescent kinase assay
Chain of Phosphatidylinositol 4,5-bisphosphate 3-kinase catalytic subunit beta isoform (P42338 whole entry, canonical isoform): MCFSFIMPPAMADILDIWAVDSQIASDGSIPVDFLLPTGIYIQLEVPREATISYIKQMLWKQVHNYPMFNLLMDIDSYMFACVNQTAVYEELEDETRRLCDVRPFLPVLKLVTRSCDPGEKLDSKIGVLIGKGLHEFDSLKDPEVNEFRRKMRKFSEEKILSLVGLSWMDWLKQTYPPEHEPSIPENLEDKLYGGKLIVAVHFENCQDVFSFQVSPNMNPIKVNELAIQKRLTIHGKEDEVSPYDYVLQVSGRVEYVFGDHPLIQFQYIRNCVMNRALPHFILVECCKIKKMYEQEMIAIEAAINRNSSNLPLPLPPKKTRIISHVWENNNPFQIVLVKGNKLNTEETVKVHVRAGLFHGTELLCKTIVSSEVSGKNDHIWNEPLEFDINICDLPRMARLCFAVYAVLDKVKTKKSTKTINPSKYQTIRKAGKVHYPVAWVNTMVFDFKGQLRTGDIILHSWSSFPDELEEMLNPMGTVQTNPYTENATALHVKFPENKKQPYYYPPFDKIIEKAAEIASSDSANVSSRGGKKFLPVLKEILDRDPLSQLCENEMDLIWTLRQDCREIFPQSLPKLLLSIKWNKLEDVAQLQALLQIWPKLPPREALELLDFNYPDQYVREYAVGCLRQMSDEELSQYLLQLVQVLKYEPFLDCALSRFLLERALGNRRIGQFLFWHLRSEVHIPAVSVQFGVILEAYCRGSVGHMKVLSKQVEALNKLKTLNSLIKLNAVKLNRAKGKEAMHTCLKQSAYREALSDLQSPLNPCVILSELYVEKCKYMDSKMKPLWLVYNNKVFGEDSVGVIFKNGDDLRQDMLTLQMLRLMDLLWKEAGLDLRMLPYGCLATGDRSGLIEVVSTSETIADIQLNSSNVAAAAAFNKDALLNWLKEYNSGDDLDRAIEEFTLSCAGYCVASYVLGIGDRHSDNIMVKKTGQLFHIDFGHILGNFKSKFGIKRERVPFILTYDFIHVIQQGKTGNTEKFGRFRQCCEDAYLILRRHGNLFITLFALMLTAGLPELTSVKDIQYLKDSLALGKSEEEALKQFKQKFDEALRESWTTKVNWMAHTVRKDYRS

SF-126 = assay: Antiproliferative activity against human SF-126 cells assessed as reduction in cell viability at 10 uM incubated for 24 to 48 hrs by CCK-8 assay; format: functional, cell-based; conditions: time lower […], time upper 48.0 hrs
HOS = assay: Antiproliferative activity against human HOS cells assessed as reduction in cell viability at 10 uM incubated for 24 to 48 hrs by CCK-8 assay; format: functional, cell-based; conditions: time lower […], time upper 48.0 hrs
[12] = target: Phosphatidylinositol 4,5-bisphosphate 3-kinase catalytic subunit gamma isoform (Homo sapiens, UniProt P48736); assay: Inhibition of PI3Kgamma (unknown origin) by ADP-Glo luminescent kinase assay
Chain of Phosphatidylinositol 4,5-bisphosphate 3-kinase catalytic subunit gamma isoform (P48736 whole entry, canonical isoform): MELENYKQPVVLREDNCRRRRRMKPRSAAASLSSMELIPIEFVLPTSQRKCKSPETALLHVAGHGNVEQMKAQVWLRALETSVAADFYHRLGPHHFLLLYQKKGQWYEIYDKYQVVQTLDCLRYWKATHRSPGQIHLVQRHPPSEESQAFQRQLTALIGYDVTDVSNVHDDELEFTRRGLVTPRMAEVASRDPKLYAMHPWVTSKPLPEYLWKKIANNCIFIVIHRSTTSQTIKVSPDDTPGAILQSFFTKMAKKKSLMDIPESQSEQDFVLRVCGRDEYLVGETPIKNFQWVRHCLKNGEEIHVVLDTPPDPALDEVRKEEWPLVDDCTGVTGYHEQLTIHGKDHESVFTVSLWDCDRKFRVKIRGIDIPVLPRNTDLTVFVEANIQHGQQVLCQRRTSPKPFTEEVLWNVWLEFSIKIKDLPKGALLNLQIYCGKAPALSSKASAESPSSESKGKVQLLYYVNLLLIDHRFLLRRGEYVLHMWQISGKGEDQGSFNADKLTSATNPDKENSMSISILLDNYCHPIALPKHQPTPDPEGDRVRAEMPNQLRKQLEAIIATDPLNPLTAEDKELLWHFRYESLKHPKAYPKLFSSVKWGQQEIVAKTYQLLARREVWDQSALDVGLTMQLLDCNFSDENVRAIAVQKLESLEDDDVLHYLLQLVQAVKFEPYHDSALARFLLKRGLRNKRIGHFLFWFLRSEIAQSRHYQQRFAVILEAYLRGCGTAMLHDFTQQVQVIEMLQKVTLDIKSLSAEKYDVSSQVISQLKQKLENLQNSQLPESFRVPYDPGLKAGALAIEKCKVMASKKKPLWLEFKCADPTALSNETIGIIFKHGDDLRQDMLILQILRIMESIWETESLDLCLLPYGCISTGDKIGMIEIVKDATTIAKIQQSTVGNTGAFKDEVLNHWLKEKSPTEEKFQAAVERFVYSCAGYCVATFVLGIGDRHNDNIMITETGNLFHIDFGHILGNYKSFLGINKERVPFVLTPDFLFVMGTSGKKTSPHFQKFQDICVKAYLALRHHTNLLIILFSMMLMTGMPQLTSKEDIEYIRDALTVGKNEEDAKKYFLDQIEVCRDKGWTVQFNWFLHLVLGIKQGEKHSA

A549 = assay: Antiproliferative activity against human A549 cells assessed as reduction in cell viability at 10 uM incubated for 24 to 48 hrs by CCK-8 assay; format: functional, cell-based; conditions: time lower […], time upper 48.0 hrs
Cytochrome P450 2C9 = Cytochrome P450 2C9 (Homo sapiens, UniProt P11712); assay: Inhibition of CYP2C9 in human liver microsomes using tolbutamide as substrate pre-incubated for 30 mins followed by substrate addition and measured after 15 mins in presence of NADPH by LC/MS analysis; format: ADME, Microsome
Chain of Cytochrome P450 2C9 (P11712 whole entry): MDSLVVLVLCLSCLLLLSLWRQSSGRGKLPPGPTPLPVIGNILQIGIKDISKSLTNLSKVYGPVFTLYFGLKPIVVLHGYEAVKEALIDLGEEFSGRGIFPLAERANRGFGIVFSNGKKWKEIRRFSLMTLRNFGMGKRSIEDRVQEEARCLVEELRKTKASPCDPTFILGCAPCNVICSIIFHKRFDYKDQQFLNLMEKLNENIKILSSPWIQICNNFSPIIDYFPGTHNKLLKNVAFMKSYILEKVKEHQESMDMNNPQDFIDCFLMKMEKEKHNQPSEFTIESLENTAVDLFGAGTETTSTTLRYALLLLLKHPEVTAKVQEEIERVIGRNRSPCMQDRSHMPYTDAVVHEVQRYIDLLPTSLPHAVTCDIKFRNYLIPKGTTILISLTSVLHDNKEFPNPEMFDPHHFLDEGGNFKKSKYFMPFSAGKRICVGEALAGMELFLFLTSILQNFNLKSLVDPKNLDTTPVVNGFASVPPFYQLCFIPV

[13] = AUC (0 to t) in Sprague-Dawley rat at 5 mg/kg, iv measured upto 24 hrs by LC-MS analysis; format: ADME, organism-based; conditions: in vivo
HeLa = assay: Antiproliferative activity against human HeLa cells assessed as reduction in cell viability at 10 uM incubated for 24 to 48 hrs by CCK-8 assay; format: functional, cell-based; conditions: time lower […], time upper 48.0 hrs
[14] = MRT (0 to t) in Sprague-Dawley rat at 5 mg/kg, iv measured upto 24 hrs by LC-MS analysis; format: ADME, organism-based; conditions: in vivo
Cytochrome P450 1A2 = Cytochrome P450 1A2 (Homo sapiens, UniProt P05177); assay: Inhibition of CYP1A2 in human liver microsomes using phenacetin as substrate pre-incubated for 30 mins followed by substrate addition and measured after 15 mins in presence of NADPH by LC/MS analysis; format: ADME, Microsome
Chain of Cytochrome P450 1A2 (P05177 whole entry): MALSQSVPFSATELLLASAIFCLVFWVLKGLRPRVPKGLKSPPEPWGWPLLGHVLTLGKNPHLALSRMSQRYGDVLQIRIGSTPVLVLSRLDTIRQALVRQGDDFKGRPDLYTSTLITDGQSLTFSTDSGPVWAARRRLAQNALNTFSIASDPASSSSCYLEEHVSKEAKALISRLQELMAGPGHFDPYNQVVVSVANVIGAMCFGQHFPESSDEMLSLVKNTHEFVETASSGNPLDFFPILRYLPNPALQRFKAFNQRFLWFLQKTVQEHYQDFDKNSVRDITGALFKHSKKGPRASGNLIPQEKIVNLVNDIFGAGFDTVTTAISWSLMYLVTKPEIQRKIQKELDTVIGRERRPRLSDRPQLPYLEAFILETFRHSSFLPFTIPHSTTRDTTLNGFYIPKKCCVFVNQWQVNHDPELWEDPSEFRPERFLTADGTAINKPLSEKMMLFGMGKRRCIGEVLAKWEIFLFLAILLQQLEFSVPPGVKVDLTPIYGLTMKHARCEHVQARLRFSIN

TE-1 = assay: Antiproliferative activity against human TE-1 cells assessed as reduction in cell viability at 10 uM incubated for 24 to 48 hrs by CCK-8 assay; format: functional, cell-based; conditions: time lower […], time upper 48.0 hrs
[15] = AUC (0 to infinity) in Sprague-Dawley rat at 5 mg/kg, iv measured upto 24 hrs by LC-MS analysis; format: ADME, organism-based; conditions: in vivo
[16] = target: Serine/threonine-protein kinase mTOR (Homo sapiens, UniProt P42345); assay: Inhibition of mTOR (unknown origin) by lance ultra assay

IC50 (SW-620): 9.85 µM
IC50 (HCT-116 [2]): 3.79 µM
Stability [3]: Stable
half-life [4]: 5.8 h
IC50 (MDA-MB-231): 13.7 µM
clearance [6]: 10 mL/min/kg
IC50 [7]: 0.0025 µM
Vd [8]: 5.2 L/kg
IC50 [11]: 0.45 µM
IC50 [12]: 0.2 µM
IC50 (Cytochrome P450 2C9): > 10 µM
AUC(0-t) at 24 h [13]: 8230 ng·h/mL
MRT last at 24 h [14]: 1.7 h
IC50 (Cytochrome P450 1A2): > 10 µM
AUC(0-inf) [15]: 8250 ng·h/mL
IC50 [16]: 0.601 µM
SMILES: Nc1nc2cc(-c3ccc4ncc(N5C[C@@H]6OCCO[C@@H]6C5)nc4c3)ccc2o1
Activity (HCT-116 [1]): 5.99%
Activity (A-375): Active
Activity (786-0): Active
Activity (HCT-116 [5]): 27.03%
Activity (A673): Active
Activity (DU-145): Active
Activity (HCT-116 [9]): Dose-Dependent Effect
inhibition (HCT-116 [10]): Dose-Dependent Effect
Activity (SF-126): Active
Activity (HOS): Active
Activity (A549): Active
Activity (HeLa): Active
Activity (TE-1): Active
